We go through ten compounds from paper PMC10102067, “Synthesis of vancomycin fluorescent probes that retain antimicrobial activity, identify Gram-positive bacteria, and detect Gram-negative outer membrane damage” (Communications Biology, 2023).

For test [1], the system named is E. coli. Nature of the test: microbe, parasite or virus in culture. The protocol: Bacteria were obtained from the American Type Culture Collection (ATCC; Manassas, VA, USA), Merck Sharp & Dohme (Kenilworth, NJ), the Coli Genetic Stock Center (CGSC, Yale University), Network on Antimicrobial Resistance in Staphylococcus aureus (NARSA) via BEI Resources (www.beiresources.org) and independent academic clinical isolate and mutant collections. All species used in this study were described fully in Table S4. Bacteria were cultured in Cation-Adjusted Mueller-Hinton Broth (CAMHB, Bacto Laboratories, Cat No. 212322) or Muller Hinton Broth (MHB, Bacto Laboratories, Cat No. 211443) at 37 °C overnight. A sample of each culture was then diluted 50-fold in MHB and incubated at 37 °C for 1.5–3 h. The stock solutions of vancomycin probes 7, 8 and 9 were prepared at 1.28 mg/mL in sterile water. The compounds were serially diluted two-fold across the wells, with concentrations ranging from 0.06 µg/mL to 128 µg/mL, plated in duplicate. […]

Test [2] deals with E. coli ATCC 25922. Nature of the test: Permeability test in Gram-negative bacteria, flow cytometry method (Fig. 4i). It is filed as cell-based. The settings on record: compound 0.125–128 µg/mL 1 h 37 °C, then probe 9 32 µg/mL 30 min. The protocol:
E. coli ATCC 25922 cells were cultured in LB at 37 °C overnight. […] The resultant mid-log phase cultures were harvested and washed once with HBSS, then resuspended in HBSS to an OD600 of 1. Then 1 mL of the cultures were transferred to Eppendorf tubes and centrifuged. Solutions (1 mL) of antibiotics (0.125–128 µg /mL) and isopropanol (100 %) was added, then left for 1 h at 37 °C with shaking (180 rpm). […] Bacteria were washed again with HBSS, the pellets were suspended in 200 µL of HBSS, and 100 µL of the suspended bacteria solution was added into black 96-well plates (Black flat bottom, 96-Well plate, Corning, Cat No. CLS3915-100EA) for Tecan plate reader measurement (Tecan Plate Reader, Infinite M1000 Pro). Excitation: 475 nm; Emission: 550 nm. On the other hand, suspended bacteria solution was then diluted 1000-fold in HBSS for flow cytometer measurement (Cytoflex S, Beckman Coulter, Inc. 250 S. Kraemer Blvd. Brea, CA 92821 U.S.A.). The detector used here was FITC (Excitation 488 nm; Emission 525/40 nm). 40000 events were collected. The data was analysed using Kaluza Analysis 2.1 software (Beckman Coulter, Inc. 250 S. Kraemer Blvd. Brea, CA 92821 U.S.A.) and statistical software GraphPad Prism 8 (San Diego, CA, U.S.A.).
In general terms: Flow cytometry measures light scatter and fluorescence of single cells or particles in a stream.

The mark [3] stands for this setting: Table S2: CGSC7139 DC2 mutant, CaMHB, non-treated polystyrene plate.
Where [4] appears, read: Table S2: CGSC7139 DC2 mutant, MHB, non-treated polystyrene plate.
[5] abbreviates: Table S2: MB4902 LpxC mutant, CaMHB, non-treated polystyrene plate.
The mark [6] stands for this setting: Table S2: MB4902 LpxC mutant, MHB, non-treated polystyrene plate.
Setting [7] is: Escherichia coli, ATCC25922, read-out: E. coli MIC, Table S2: ATCC 25922 FDA Control, CaMHB, non-treated polystyrene plate.
The mark [8] stands for this setting: Escherichia coli, ATCC25922, read-out: E. coli MIC, Table S2: ATCC 25922 FDA Control, MHB, non-treated polystyrene 96-well plate.
The mark [9] stands for this setting: Escherichia coli, read-out: E. coli MIC, Table S2: CGSC7139 DC2 mutant, CaMHB, non-treated polystyrene plate.
The mark [10] stands for this setting: Escherichia coli, read-out: E. coli MIC, Table S2: CGSC7139 DC2 mutant, MHB, non-treated polystyrene plate.
[11] abbreviates: Escherichia coli, read-out: E. coli MIC, Table S2: MB4827 K12, CaMHB, non-treated polystyrene plate.
Setting [12] is: Escherichia coli, read-out: E. coli MIC, Table S2: MB4827 K12, MHB, non-treated polystyrene plate.
The mark [13] stands for this setting: Escherichia coli, read-out: E. coli MIC, Table S2: MB4902 LpxC mutant, CaMHB, non-treated polystyrene plate.
[14] abbreviates: Escherichia coli, read-out: E. coli MIC, Table S2: MB4902 LpxC mutant, MHB, non-treated polystyrene plate.
[15] abbreviates: Table S2: ATCC 25922 FDA Control, CaMHB, non-treated polystyrene plate.
The mark [16] stands for this setting: Table S2: ATCC 25922 FDA Control, MHB, non-treated polystyrene 96-well plate.
[17] abbreviates: Table S2: MB4827 K12, CaMHB, non-treated polystyrene plate.
Setting [18] is: Table S2: MB4827 K12, MHB, non-treated polystyrene plate.

Values after ≈ are worked out from the molar mass of the structure shown. Structures can show the parent of a compound that is named as a salt. Where two headings read alike, the source gives them in different places. Bridge positions count the residues as written; N and C are the ends. Square brackets hold non-standard residues; d marks the D form. Peptide text beside a SMILES is read from it. * marks the point of attachment. Decanoyl(3R-OH) = CCCCCCC[C@@H](O)CC(=O)*; dDab = NCC[C@@H](N)C(=O)O; Dab = NCC[C@H](N)C(=O)O

In test [1] (3 h), `CN[C@H](CC(C)C)C(=O)N[C@H]1C(=O)N[C@@H](CC(N)=O)C(=O)N[C@H]2C(=O)N[C@H]3C(=O)N[C@H](C(=O)N[C@H](C(=O)O)c4cc(O)cc(O)c4-c4cc3ccc4O)[C@H](O)c3ccc(c(Cl)c3)Oc3cc2cc(c3O[C@@H]2O[C@H](CO)[C@@H](O)[C@H](O)[C@H]2O[C@H]2C[C@](C)(N)[C@H](O)[C@H](C)O2)Oc2ccc(cc2Cl)[C@H]1O` [1 Vancomycin, Vancomycin] showed an MIC of more than 64 µg/mL.
Take `CC(C)[C@@H]1NC(=O)CNC(=O)[C@H](CC(N)=O)NC(=O)[C@H](CCCNC(=N)N)NC(=O)[C@H](Cc2ccc(O)cc2)NC(=O)[C@H](C(C)C)NC(=O)[C@@H]2CSSC[C@H](NC(=O)[C@H](C(C)C)NC(=O)[C@H](CCCNC(=N)N)NC1=O)C(=O)N[C@@H](Cc1ccc(O)cc1)C(=O)N[C@@H](CCCNC(=N)N)C(=O)N[C@@H](CCCNC(=N)N)C(=O)N[C@H](C(=O)N[C@@H](CC(N)=O)C(=O)O)CSSC[C@H](NC(=O)[C@H](Cc1ccccc1)NC(=O)CN)C(=O)N[C@@H](Cc1c[nH]c3ccccc13)C(=O)N[C@@H](Cc1ccc(O)cc1)C(=O)N[C@@H](C(C)C)C(=O)N2` [Arenicin-3] (H-GFCWYVCVYRNGVRVCYRRCN-OH; disulfide 3-20, 7-16; N-terminus and C-terminus assumed): the “outer membrane damage: fluorescence of probe 9 labelling after treatment (in words)” value (from here on “outer membrane damage: fluorescence”) in test [2] is “increased fluorescence at the lowest concentrations”. The “E. coli MIC” value was 2 to 8 µg/mL in test [1] (setting [3]), 2 to 8 µg/mL in test [1] (setting [4]), 1 µg/mL in test [1] (setting [5]) and 1 to 2 µg/mL in test [1] (setting [6]).
For `CC[C@H](C)[C@H](NC(=O)[C@@H](NC(=O)[C@H](CO)NC(=O)[C@H](C)NC(=O)[C@@H](NC(=O)[C@H](CCCCN)NC(=O)[C@H](CCCCN)NC(=O)[C@@H](NC(=O)[C@@H](NC(=O)[C@H](CC(=O)O)NC(=O)[C@H](Cc1ccccc1)NC(=O)[C@H](CC(C)C)NC(=O)CN)C(C)C)[C@@H](C)CC)C(C)C)C(C)C)C(=O)NCC(=O)NCC(=O)N[C@@H](CC(C)C)C(N)=O` [Citropin 1.1] (H-GLFDVIKKVASVIGGL-NH2; N-terminus and C-terminus assumed), the “outer membrane damage: fluorescence” value in test [2] was “substantially higher concentrations before membrane damage was seen”.
`CC[C@H]1OC(=O)[C@H](C)[C@@H](O[C@H]2C[C@@](C)(OC)[C@@H](O)[C@H](C)O2)[C@H](C)[C@@H](O[C@@H]2O[C@H](C)C[C@H](N(C)C)[C@H]2O)[C@](C)(O)C[C@@H](C)C(=O)[C@H](C)[C@@H](O)[C@]1(C)O` [Erythromycin]: the MIC in test [1] (setting [7]) is 64 µg/mL (≈ 87.2 µM); in test [1] (setting [8]), 64 µg/mL (≈ 87.2 µM); in test [1] (setting [9]) it was more than 64 µg/mL; in test [1] (setting [10]), more than 64 µg/mL; in test [1] (setting [11]) it was more than 64 µg/mL; in test [1] (setting [12]) it was 64 µg/mL (≈ 87.2 µM). Besides, the MIC in test [1] (setting [13]) and in test [1] (setting [14]) was 8 µg/mL (≈ 10.9 µM) throughout.
Consider `CNC(C)C1CCC(N)C(OC2C(N)CC(N)C(OC3OCC(C)(O)C(NC)C3O)C2O)O1` (centres unmarked) [Gentamicin sulfate], for which the MIC in test [1] (setting [7]) is 1 µg/mL; in test [1] (setting [8]), 2 µg/mL; in test [1] (setting [9]), 0.5 to 2 µg/mL; in test [1] (setting [10]), 0.5 to 4 µg/mL; in test [1] (setting [11]) it was 0.5 to 1 µg/mL; in test [1] (setting [12]), 0.5 to 1 µg/mL. Further, the MIC in test [1] (setting [13]) and in test [1] (setting [14]) was 0.25 to 0.5 µg/mL in each case.
Regarding `CCCCCCC[C@@H](O)CC(=O)N[C@H](CCN)C(=O)N[C@H]1CCNC(=O)[C@H](CC(C)C)NC(=O)[C@H](CCN)NC(=O)[C@H](CCN)NC(=O)[C@H](CC(C)C)NC(=O)[C@@H](Cc2ccccc2)NC(=O)[C@H](CCN)NC1=O` [Octapeptin C4] ({Decanoyl(3R-OH)}-[dDab][Dab][Dab][dF]L[Dab][Dab]L; lactam 2-C (inferred); N-terminus assumed), the “outer membrane damage: fluorescence” value in test [2] is reported as “substantially higher concentrations before membrane damage was seen”. In addition, the “E. coli MIC” value was 2 to 8 µg/mL in test [1] (setting [3]), 1 to 2 µg/mL in test [1] (setting [4]), 2 µg/mL in test [1] (setting [5]) and 2 µg/mL in test [1] (setting [6]).
For the compound `CC[C@H](C)[C@@H]1NC(=O)CNC(=O)[C@H](CCCNC(=N)N)NC(=O)[C@H](Cc2ccc(O)cc2)NC(=O)[C@@H]2CSSC[C@H](NC1=O)C(=O)N[C@@H](Cc1ccc(O)cc1)C(=O)N[C@@H](CCCNC(=N)N)C(=O)N[C@@H](CCCNC(=N)N)C(=O)N[C@H](C(=O)N[C@@H](CCCNC(=N)N)C(N)=O)CSSC[C@H](NC(=O)[C@H](Cc1c[nH]c3ccccc13)NC(=O)[C@@H](N)CCCCN)C(=O)N[C@@H](Cc1ccccc1)C(=O)N[C@@H](CCCNC(=N)N)C(=O)N[C@@H](C(C)C)C(=O)N2` [Tachyplesin-1] (H-KWCFRVCYRGICYRRCR-NH2; disulfide 3-16, 7-12 (inferred); N-terminus and C-terminus assumed), the “outer membrane damage: fluorescence” value in test [2] was “increased fluorescence at the lowest concentrations”.
On to `COc1cc(Cc2cnc(N)nc2N)cc(OC)c1OC` [Trimethoprim], for which, in test [1], the “E. coli MIC” value lay within 1 to 2 µg/mL. Further, the MIC in test [1] (Escherichia coli, ATCC25922, read-out: E. coli MIC) is 1 µg/mL (≈ 3.44 µM); in test [1] (Escherichia coli, read-out: E. coli MIC) it was 0.5 µg/mL (≈ 1.72 µM); in test [1] (setting [9]), 0.25 to 0.5 µg/mL (≈ 0.861 to 1.72 µM); in test [1] (setting [10]), 0.25 to 0.5 µg/mL (≈ 0.861 to 1.72 µM); in test [1] (setting [13]), 0.5 to 1 µg/mL (≈ 1.72 to 3.44 µM); in test [1] (setting [14]) it was 0.5 to 1 µg/mL (≈ 1.72 to 3.44 µM).
Take Colistin sulfate: the “E. coli MIC” value in test [1] (setting [15]) was 0.25 µg/mL; in test [1] (setting [16]), 0.25 µg/mL; in test [1] (setting [3]), 0.125 to 0.25 µg/mL; in test [1] (setting [4]), 0.125 µg/mL; in test [1] (setting [17]), 0.06 to 0.25 µg/mL; in test [1] (setting [18]) it was 0.06 to 0.125 µg/mL. Besides, the “E. coli MIC” value in test [1] (setting [5]) and in test [1] (setting [6]) was 0.03 to 0.06 µg/mL throughout.
For Polymyxin B, the “E. coli MIC” value in test [1] (ATCC 29522, NBS 96-well plates (Table 2)) is 0.06 µg/mL; in test [1] (CFT073, NBS plates (Table 2)), not above 0.03 µg/mL; in test [1] (CFT073 WaaL mutant, NBS plates (Table 2)) it was not above 0.03 µg/mL; in test [1] (DC2 mutant, NBS plates (Table 2)) it was not above 0.03 µg/mL; in test [1] (LpxC mutant, NBS plates (Table 2)), not above 0.03 µg/mL; in test [1] (MB4827 K12, NBS plates (Table 2)) it was not above 0.03 µg/mL. Moreover, the “E. coli MIC” value in test [1] (setting [15]) is 0.125 µg/mL; in test [1] (setting [16]), 0.125 µg/mL; in test [1] (setting [17]), 0.125 µg/mL; in test [1] (setting [18]), 0.125 µg/mL; in test [1] (setting [5]), 0.03 to 0.06 µg/mL; in test [1] (setting [6]), 0.03 to 0.06 µg/mL.
